Experiments:
Test in all cases: relative viability (nuclei count vs DMSO), 5 days (fraction); higher = more cells survive
Avagacestat + Luminespib = compound: NC(=O)[C@@H](CCC(F)(F)F)N(Cc1ccc(-c2ncon2)cc1F)S(=O)(=O)c1ccc(Cl)cc1 [Avagacestat] + CCNC(=O)c1noc(-c2cc(C(C)C)c(O)cc2O)c1-c1ccc(CN2CCOCC2)cc1 [Luminespib] (partner 0.01 µM)
Outline: (§1)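 Relative viability was taken as the ratio of nuclei in treated wells to nuclei in vehicle wells. Lung cancer cell lines in 1536-well plates received compounds by pin tool one day after seeding, either one drug alone or a fixed anchor-drug dose plus five library-drug doses (not always all listed) in √10 steps. Nuclei were counted on 4× images after 5 days of treatment, and values are medians of duplicate plates.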

Avagacestat + Bortezomib = compound: NC(=O)[C@@H](CCC(F)(F)F)N(Cc1ccc(-c2ncon2)cc1F)S(=O)(=O)c1ccc(Cl)cc1 [Avagacestat] + CC(C)C[C@H](NC(=O)[C@H](Cc1ccccc1)NC(=O)c1cnccn1)B(O)O [Bortezomib] (partner 0.002 µM)
Outline: as §1

Avagacestat + Dasatinib = compound: NC(=O)[C@@H](CCC(F)(F)F)N(Cc1ccc(-c2ncon2)cc1F)S(=O)(=O)c1ccc(Cl)cc1 [Avagacestat] + Cc1nc(Nc2ncc(C(=O)Nc3c(C)cccc3Cl)s2)cc(N2CCN(CCO)CC2)n1 [Dasatinib] (partner 0.075 µM)
Outline: as §1

[1] = compound: NC(=O)[C@@H](CCC(F)(F)F)N(Cc1ccc(-c2ncon2)cc1F)S(=O)(=O)c1ccc(Cl)cc1 [Avagacestat] + CC(=O)c1c(C)c2cnc(Nc3ccc(N4CCNCC4)cn3)nc2n(C2CCCC2)c1=O [Palbociclib] (partner 0.5 µM)
Outline: as §1

Cell Line	relative viability (Avagacestat + Luminespib; first compound 0.08 µM)	relative viability (Avagacestat + Luminespib; first compound 0.253 µM)	relative viability (Avagacestat + Luminespib; first compound 0.8 µM)	relative viability (Avagacestat + Luminespib; first compound 2.53 µM)	relative viability (Avagacestat + Luminespib; first compound 8 µM)	relative viability (Avagacestat + Bortezomib; first compound 0.08 µM)	relative viability (Avagacestat + Bortezomib; first compound 0.253 µM)	relative viability (Avagacestat + Bortezomib; first compound 0.8 µM)	relative viability (Avagacestat + Bortezomib; first compound 2.53 µM)	relative viability (Avagacestat + Bortezomib; first compound 8 µM)	relative viability (Avagacestat + Dasatinib; first compound 0.08 µM)	relative viability (Avagacestat + Dasatinib; first compound 0.253 µM)	relative viability (Avagacestat + Dasatinib; first compound 0.8 µM)	relative viability (Avagacestat + Dasatinib; first compound 2.53 µM)	relative viability (Avagacestat + Dasatinib; first compound 8 µM)	relative viability ([1]; first compound 0.08 µM)	relative viability ([1]; first compound 0.253 µM)	relative viability ([1]; first compound 0.8 µM)	relative viability ([1]; first compound 2.53 µM)	relative viability ([1]; first compound 8 µM)
NCI-H838	0.363	0.256	0.233	0.254	0.191	0.977	0.922	0.93	0.863	0.502	0.293	0.285	0.328	0.309	0.253	0.221	0.244	0.226	0.208	0.215
NCI-H2009	1.13	1.03	1.2	1.04	0.901	1.04	1.03	1.07	1.02	0.828	0.323	0.274	0.282	0.257	0.229	0.201	0.202	0.214	0.215	0.199
NCI-H460	0.0352	0.0325	0.0362	0.0361	0.0325			1.36	1.18	1.15	0.625	0.59	0.747	0.402	0.475	0.128	0.104	0.14	0.146	0.131
201T	1.11	1.05	1	0.964	1.04	1.1	1.08	1.2	1.11	1.09	0.668	0.599	0.565	0.586	0.608	0.361	0.307	0.382	0.331	0.352
ChaGo-K-1	0.551	0.718	0.747	0.551	0.595	1.02	0.914	1.14	1.32	1.06	0.616	0.641	0.628	0.551	0.608	1.05	1.01	0.933	0.887	0.798
NCI-H1651	1.09	0.931	0.726	0.719	0.852	1.06	1.07	1.05	0.944	0.933	0.477	0.426	0.454	0.38	0.342	0.521	0.51	0.569	0.46	0.504
LU99A	0.308	0.199	0.305	0.247	0.213	1.28	1.13	0.938	1.1	1.19	0.483	0.542	0.455	0.444	0.471	0.407	0.429	0.472	0.414	0.366
LC-2-ad	1.18	1.05	1.18	0.948	1.14	1.16	1.12	1.04	0.934	0.941	0.558	0.489	0.646	0.447	0.343	0.483	0.472	0.529	0.439	0.381

From the supplement of paper PMC10307832
